PMC7297889, “In vivo absolute quantification of striatal and extrastriatal D2/3 receptors with [^123I]epidepride SPECT” (EJNMMI Research, 2020)
Several values for one entry are separate records, joined by “and”; a condition that tells them apart may be missing. Equal entries are not always repeated.

How the values were obtained:
D2/3 receptors [1] = assay: multi-injection SPECT protocol, 2T-5k full kinetic modeling; format: in vivo, rat; conditions: mean of 3 rats; for Kd: read-out: appKD
Description: (§1) 18 male Mdr1a (P-glycoprotein) knock-out (KO) rats, weighing between 380 and 500 g, were employed in the study. Using this rat strain allowed us to study the kinetics of [^123I]epidepride independently of the potentially confounding effect of the P-glycoprotein [30–34]. Of these, 3 rats were employed in an in vivo multi-injection SPECT imaging protocol for absolute D2/3 receptor quantification (SPECT-MI in Table 1). Four rats were employed in an arterial plasma analysis for the study of plasma kinetics of the radiotracer and the estimation of the free parent radiotracer fraction (TLC in Table 1). Four rats were employed in a SPECT experiment with a partial D2/3 receptor saturation design for the determination of Bavail and appKd parameters from an in vivo Scatchard plot (SPECT-PSA in Table 1). Finally, 7 rats were employed in a preliminary study of the effect of a chronic haloperidol treatment on the Bavail and appKd of the D2/3 receptors in rats (SPECT-PSA_HAL for haloperidol-treated and SPECT-PSA_CON for control rats in Table 1, see Additional file 1).
(§2) SPECT scans were performed with a U-SPECT-II camera (MiLabs, Utrecht, Netherlands). In rats that underwent SPECT scans with the multi-injection protocol, two polyethylene catheters (i.d. = 0.58 mm, o.d. = 0.96 mm) were inserted in the left femoral vein and artery for radiotracer administration and blood sampling, respectively. On the other hand, in rats that underwent SPECT scans for the partial saturation protocol, radiotracer injection was performed via a tail vein catheter. SPECT scans were performed under isoflurane anesthesia (3% for induction and 1–2% for maintenance). Body temperature was monitored during the scans and maintained at 37 ± 1 °C by means of a thermostatically controlled heating blanket.
(§3) SPECT image reconstruction was performed using a pixel-ordered subset expectation maximization (P-OSEM, 0.4-mm voxel size, 4 iterations, 6 subsets) algorithm using MiLabs image reconstruction software. Radioactive decay correction was performed, while correction for attenuation or scatter was not. Following reconstruction, dynamic images from the partial saturation experiment were denoised with factor analysis (FA) using Pixies software (Apteryx, Issy-les-Moulineaux, France) as previously described. FA allows the decomposition of a dynamic signal into a few elementary components, termed factors. In this study, 3 factors were retained and the rest of the signal was discarded as noise. SPECT images were processed with PMOD software v3.7 (PMOD Technologies Ltd, Zurich, Switzerland). Averaged images corresponding to the ten first frames of the acquisition were co-registered to a magnetic resonance imaging (MRI) template integrated in PMOD [37]. Transformation matrices were then applied to dynamic images.
A multi-injection protocol for full kinetic modeling of [^123I]epidepride was employed. The scan protocol began with a first injection of the radiotracer at a high-specific activity, followed by a second co-injection of [^123I]epidepride and the unlabeled compound at 180 min and a third injection of the unlabeled compound alone at 240 min. The overall scan protocol included 360 1-min frames (Fig. 1).
The whole multi-injection study TAC data was fitted in with a two-tissue compartment five-parameter model (2T-5k), to estimate K1, k2, kon, koff, and Bavail as previously described. The free, non-metabolized radiotracer fraction in the plasma was used as the input function. During dynamic SPECT acquisitions, 40 arterial blood samples (of 25 μl each) were withdrawn after each radiotracer injection at regular time intervals. Radioactivity was measured in a gamma counting system and expressed in kBq/ml after calibration. […]

[2] = arterial plasma analysis: metabolite correction and plasma protein binding; format: in vivo; conditions: rat arterial plasma, 4 rats
Description: as §1
The whole multi-injection study TAC data was fitted in with a two-tissue compartment five-parameter model (2T-5k), to estimate K1, k2, kon, koff, and Bavail as previously described. The free, non-metabolized radiotracer fraction in the plasma was used as the input function. During dynamic SPECT acquisitions, 40 arterial blood samples (of 25 μl each) were withdrawn after each radiotracer injection at regular time intervals. Radioactivity was measured in a gamma counting system and expressed in kBq/ml after calibration. To estimate the plasma input function in in vivo SPECT experiments, only whole-blood radioactivity was measured individually and the free, non-metabolized radiotracer fraction was fitted using a model estimated in an independent experiment. Indeed, metabolite correction and plasma protein binding analysis for the estimation of radiotracer plasma input function was performed in an independent group of 4 rats, as previously described The analysis was performed in MATLAB software R2019 (Mathworks, USA).
As described in the “Methods” section describing the multi-injection study protocol, in each dynamic brain SPECT study, only whole-arterial blood radioactivity was measured. The free, non-metabolized radiotracer fraction was estimated by fitting average data from an independent group of four rats in an experiment that was independent from the SPECT scan experiments. The parameters of the bi-exponential function describing the kinetics of the mean percent non-metabolized plasma radiotracer were A1 = 0.61, B1 = − 0.20, A2 = 0.27, B2 = − 0.006. Average percentage of radiotracer bound to plasma proteins was 22% (f1 = 0.22 ± 0.06). […]

D2/3 receptors [3] = assay: in vivo partial saturation SPECT study (in vivo Scatchard plot); design: species or system rat; conditions: mean of 4 rats; for Kd: read-out: appKD
Description: as §1, §2, §3
A partial saturation protocol was employed to estimate Bavail and appKd as recently described for another D2/3 radiotracer based on the original description by Delforge et al., as optimized by Wimberley et al.. Briefly, co-injection of a dose of the unlabeled compound at doses that occupy 50–70% of the receptors allows to form a Scatchard plot when the specifically bound fraction of radiotracer (CS) is plotted against the ratio of CS to the non-displaceable binding at the same region (CS/CND). The intercept to the CS axis provides the Bavail and the inverse of the slope the appKd.
In the partial saturation approach, the cerebellar TAC is employed as an approximation of the non-displaceable binding in the target brain VOIs. Given the differences in the concentration of this binding between the Cer and the target VOIs, as well as the presence of a non-negligible specific binding in the Cer with [^123I]epidepride, the cerebellar TAC has to be corrected. […]

D2/3 receptors [4] = assay: chronic haloperidol treatment, striatal D2/3 Bavail by [^123I]epidepride partial saturation SPECT; format: in vivo, rat; conditions: for increase in Bavail vs vehicle-treated group: haloperidol 1 mg/kg/day 28 days; for Bavail of [^123I]epidepride in haloperidol-treated group: haloperidol 1 mg/kg/day sc 28 days, scan 7 days after, n=3
Description: as §1
For this purpose, two groups of rats were treated with either haloperidol (1 mg/kg/day, n=3) or vehicle (n=4) for 28 days. A [^123I]epidepride SPECT scan using the partial saturation protocol was performed 7 days (a sufficient period for the complete elimination of haloperidol) after the end of the treatment period to assess neurochemical changes with respect to the D2/3 receptor. The radioactivity doses that were employed are presented in Table 1 (SPECT-PSA_HAL for haloperidol-treated and SPECT-PSA_CON for control rats). Statistical analysis of the difference in the quantitative parameter values between the groups was performed by means of a two-sample t test.
Haloperidol was purchased from Sigma-Aldrich (Buchs, Switzerland). It was dissolved in dimethyl-sulfoxide (DMSO) 50% v/v in water. Osmotic pumps (Alzet, Durect, Cupertino, CA, USA) were employed to continuously deliver the treatment at a dose of 1 mg/kg/day over 28 days. For the pump implantation, rats were anesthetized with isoflurane (3% for induction and 1-2 % for maintenance). Body temperature was monitored during the scans and maintained at 37±1 °C by means of a thermostatically controlled heating blanket. An incision was performed in the lateral abdominal wall and a pump was subcutaneously implanted. Subcutaneous analgesia (0.02 mg/kg/8h sc; Temgesic, Reckitt Benckiser Pharmaceuticals Inc) was administered right before surgery and was continued per os in the drinking water for 48h. For the removal of the osmotic pumps, the same surgical procedure was performed after the end of the treatment period (28 days).

Q: For `CCN1CCC[C@H]1CNC(=O)c1cc(I)cc(OC)c1OC` [[^123I]epidepride], which Bavail (D2/3 receptors [1]; Amy) is on record?
A: 2.71 pmol/mL

Q: What about the k2 (D2/3 receptors [1]; Amy) of the same molecule?
A: 0.16 min⁻¹

Q: And the koff (D2/3 receptors [1]; Amy)?
A: 0.0005 s⁻¹

Q: What about the Κ1 (D2/3 receptors [1]; Amy) of the same molecule?
A: 0.38 mL.cm^-3 .min-^1

Q: What about the Kd (D2/3 receptors [1]; Amy) of the same molecule?
A: 0.36 nM

Q: And the Bavail (D2/3 receptors [1]; CP)?
A: 24.22 pmol/mL

Q: And the k2 (D2/3 receptors [1]; CP)?
A: 0.10 min⁻¹

Q: What about the koff (D2/3 receptors [1]; CP) of the same molecule?
A: 0.00067 s⁻¹

Q: And the Κ1 (D2/3 receptors [1]; CP)?
A: 0.69 mL.cm^-3 .min-^1

Q: What about the Kd (D2/3 receptors [1]; CP) of the same molecule?
A: 0.22 nM

Q: What about the Bavail (D2/3 receptors [1]; Cer) of the same molecule?
A: 2.02 pmol/mL

Q: And the k2 (D2/3 receptors [1]; Cer)?
A: 0.20 min⁻¹

Q: And the koff (D2/3 receptors [1]; Cer)?
A: 0.00033 s⁻¹

Q: And the Κ1 (D2/3 receptors [1]; Cer)?
A: 0.66 mL.cm^-3 .min-^1

Q: What about the Kd (D2/3 receptors [1]; Cer) of the same molecule?
A: 0.65 nM

Q: What about the Bavail (D2/3 receptors [1]; FC) of the same molecule?
A: 20.67 pmol/mL

Q: What about the k2 (D2/3 receptors [1]; FC) of the same molecule?
A: 0.09 min⁻¹

Q: What about the koff (D2/3 receptors [1]; FC) of the same molecule?
A: 0.0005 s⁻¹

Q: What about the Κ1 (D2/3 receptors [1]; FC) of the same molecule?
A: 0.40 mL.cm^-3 .min-^1

Q: What about the Kd (D2/3 receptors [1]; FC) of the same molecule?
A: 4.5 nM

Q: And the Bavail (D2/3 receptors [1]; Hyp)?
A: 3.64 pmol/mL

Q: And the k2 (D2/3 receptors [1]; Hyp)?
A: 0.13 min⁻¹

Q: What about the koff (D2/3 receptors [1]; Hyp) of the same molecule?
A: 0.00083 s⁻¹

Q: What about the Κ1 (D2/3 receptors [1]; Hyp) of the same molecule?
A: 0.50 mL.cm^-3 .min-^1

Q: And the Kd (D2/3 receptors [1]; Hyp)?
A: 0.37 nM

Q: What about the Bavail (D2/3 receptors [1]; InfC) of the same molecule?
A: 3.03 pmol/mL

Q: What about the k2 (D2/3 receptors [1]; InfC) of the same molecule?
A: 0.17 min⁻¹

Q: And the koff (D2/3 receptors [1]; InfC)?
A: 0.00067 s⁻¹

Q: What about the Κ1 (D2/3 receptors [1]; InfC) of the same molecule?
A: 0.80 mL.cm^-3 .min-^1

Q: And the Kd (D2/3 receptors [1]; InfC)?
A: 0.18 nM

Q: What about the Bavail (D2/3 receptors [1]; NAc) of the same molecule?
A: 10.18 pmol/mL

Q: What about the k2 (D2/3 receptors [1]; NAc) of the same molecule?
A: 0.10 min⁻¹

Q: What about the koff (D2/3 receptors [1]; NAc) of the same molecule?
A: 0.00067 s⁻¹

Q: What about the Κ1 (D2/3 receptors [1]; NAc) of the same molecule?
A: 0.53 mL.cm^-3 .min-^1

Q: What about the Kd (D2/3 receptors [1]; NAc) of the same molecule?
A: 0.15 nM

Q: And the Bavail (D2/3 receptors [1]; SupC)?
A: 3.86 pmol/mL

Q: And the k2 (D2/3 receptors [1]; SupC)?
A: 0.16 min⁻¹

Q: What about the koff (D2/3 receptors [1]; SupC) of the same molecule?
A: 0.00083 s⁻¹

Q: And the Κ1 (D2/3 receptors [1]; SupC)?
A: 0.70 mL.cm^-3 .min-^1

Q: And the Kd (D2/3 receptors [1]; SupC)?
A: 0.28 nM

Q: What about the Bavail (D2/3 receptors [1]; VTA) of the same molecule?
A: 3.77 pmol/mL

Q: And the k2 (D2/3 receptors [1]; VTA)?
A: 0.14 min⁻¹

Q: What about the koff (D2/3 receptors [1]; VTA) of the same molecule?
A: 0.00067 s⁻¹

Q: What about the Κ1 (D2/3 receptors [1]; VTA) of the same molecule?
A: 0.57 mL.cm^-3 .min-^1

Q: What about the Kd (D2/3 receptors [1]; VTA) of the same molecule?
A: 0.34 nM

Q: What about the fraction unbound ([2]; male, Mdr1a (P-glycoprotein) knock-out, read-out: Average percentage of radiotracer bound to plasma proteins (converted)) of the same molecule?
A: 0.78

Q: What about the “A1 of bi-exponential function of mean percent non-metabolized plasma radiotracer” value [2] of the same molecule?
A: 0.61

Q: And the “A2 of bi-exponential function of mean percent non-metabolized plasma radiotracer” value [2]?
A: 0.27

Q: What about the f1 [2] of the same molecule?
A: 0.22 ± 0.06

Q: And the Bavail (D2/3 receptors [3]; Amy, fixed appKd)?
A: 2.77 pmol/mL

Q: And the Bavail (D2/3 receptors [3]; CP)?
A: 21.25 pmol/mL

Q: And the Kd (D2/3 receptors [3]; CP)?
A: 0.08 nM

Q: And the Bavail (D2/3 receptors [3]; FC, fixed appKd)?
A: 5.15 pmol/mL

Q: And the Bavail (D2/3 receptors [3]; Hyp, fixed appKd)?
A: 3.85 pmol/mL

Q: What about the Bavail (D2/3 receptors [3]; InfC, fixed appKd) of the same molecule?
A: 4.46 pmol/mL

Q: And the Bavail (D2/3 receptors [3]; NAc)?
A: 11.75 pmol/mL

Q: What about the Kd (D2/3 receptors [3]; NAc) of the same molecule?
A: 0.27 nM

Q: And the Bavail (D2/3 receptors [3]; SupC, fixed appKd)?
A: 3.97 pmol/mL

Q: What about the Bavail (D2/3 receptors [3]; VTA, fixed appKd) of the same molecule?
A: 4.01 pmol/mL

Q: For `O=C(CCCN1CCC(O)(c2ccc(Cl)cc2)CC1)c1ccc(F)cc1` [haloperidol], which “increase in Bavail vs vehicle-treated group” value (D2/3 receptors [4]; left CP, p = 0.07) is on record?
A: 17.9% and 17.97%

Q: What about the “Bavail of [^123I]epidepride in haloperidol-treated group” value (D2/3 receptors [4]; left CP) of the same molecule?
A: 25.67 ± 2.30 pmol/mL

Q: And the “increase in Bavail vs vehicle-treated group” value (D2/3 receptors [4]; right CP, p = 0.12)?
A: 13.8% and 13.84%

Q: What about the “Bavail of [^123I]epidepride in haloperidol-treated group” value (D2/3 receptors [4]; right CP) of the same molecule?
A: 25.33 ± 2.52 pmol/mL
